Measurements from article PMC5218480 (PLoS ONE, 2017).

Test system: MV-4-11 cells
Assay: Gene expression microarray analysis (Affymetrix PrimeView) and GSEA
Type: cell-based, human
Design: RFU PODN (11730768_x_at) / Fold change /veh PODN (11730768_x_at) / RFU LINC00158 (11744669_a_at) / Fold change /veh LINC00158 (11744669_a_at) / RFU DUSP10 (11751237_a_at) / Fold change /veh DUSP10 (11751237_a_at) / RFU ID3 (11757404_x_at) / Fold change /veh ID3 (11757404_x_at) / RFU PLEKHG5 (11737974_s_at) / Fold change /veh PLEKHG5 (11737974_s_at) / RFU LRRC4B (11730491_at) / Fold change /veh LRRC4B (11730491_at) / RFU GIMAP4 (11747438_a_at) / Fold change /veh GIMAP4 (11747438_a_at) / RFU KRT8 (11758183_x_at) / Fold change /veh KRT8 (11758183_x_at) / RFU CNN1 (11734310_a_at) / Fold change /veh CNN1 (11734310_a_at) / RFU VPS37D (11726825_at) / Fold change /veh VPS37D (11726825_at) / RFU C10orf10 (11716522_x_at) / Fold change /veh C10orf10 (11716522_x_at) / RFU KIR2DL2 /// KIR2DL4 /// KIR2DL5A /// KIR2DL5B /// KIR2DS1 /// KIR2DS2 /// KIR2DS3 /// KIR2DS4 /// KIR3DL3 /// KIR3DL3 /// KIR3DS1 (11738374_at) / Fold change /veh KIR2DL2 /// KIR2DL4 /// KIR2DL5A /// KIR2DL5B /// KIR2DS1 /// KIR2DS2 /// KIR2DS3 /// KIR2DS4 /// KIR3DL3 /// KIR3DL3 /// KIR3DS1 (11738374_at) / RFU C1QL1 (11718748_at) / Fold change /veh C1QL1 (11718748_at) / RFU TMPRSS4 (11747572_a_at) / Fold change /veh TMPRSS4 (11747572_a_at) / RFU HAMP (11756126_x_at) / Fold change /veh HAMP (11756126_x_at) / RFU RNFT2 (11725882_a_at) / Fold change /veh RNFT2 (11725882_a_at) / RFU NR4A2 (11747474_a_at) / Fold change /veh NR4A2 (11747474_a_at) / RFU ABCC12 (11746883_a_at) / Fold change /veh ABCC12 (11746883_a_at) / RFU TMEM136 (11760407_x_at) / Fold change /veh TMEM136 (11760407_x_at) / RFU CLDN22 /// WWC2 (11732394_at) / Fold change /veh CLDN22 /// WWC2 (11732394_at) / RFU HLA-DPB1 (11760878_x_at) / Fold change /veh HLA-DPB1 (11760878_x_at) / RFU SPINT1 (11716480_a_at) / Fold change /veh SPINT1 (11716480_a_at) / RFU GAP43 (11754022_s_at) / Fold change /veh GAP43 (11754022_s_at) / RFU A4GNT (11735810_at) / Fold change /veh A4GNT (11735810_at) / RFU PRB3 (11715151_x_at) / Fold change /veh PRB3 (11715151_x_at) / RFU TUBB4B (11761932_at) / Fold change /veh TUBB4B (11761932_at) / RFU CAPN14 (11732068_a_at) / Fold change /veh CAPN14 (11732068_a_at) / RFU TMCC2 (11721928_a_at) / Fold change /veh TMCC2 (11721928_a_at) / RFU IRGQ (11745062_a_at) / Fold change /veh IRGQ (11745062_a_at) / RFU FAM174B (11720279_a_at) / Fold change /veh FAM174B (11720279_a_at) / RFU TMPRSS4 (11748680_a_at) / Fold change /veh TMPRSS4 (11748680_a_at) / RFU FAM212B (11763350_a_at) / Fold change /veh FAM212B (11763350_a_at) / RFU PLEKHG5 (11743358_a_at) / Fold change /veh PLEKHG5 (11743358_a_at) / RFU ZSCAN30 (11745921_a_at) / Fold change /veh ZSCAN30 (11745921_a_at) / RFU CMKLR1 (11741424_a_at) / Fold change /veh CMKLR1 (11741424_a_at) / RFU LOC101060620 /// MAPK8IP1 (11723275_at) / Fold change /veh LOC101060620 /// MAPK8IP1 (11723275_at) / RFU SPTSSB (11747773_x_at) / Fold change /veh SPTSSB (11747773_x_at) / RFU PRSS12 (11739890_at) / Fold change /veh PRSS12 (11739890_at) / RFU BIN1 (11741810_x_at) / Fold change /veh BIN1 (11741810_x_at) / RFU WNT11 (11732464_a_at) / Fold change /veh WNT11 (11732464_a_at) / RFU C10orf10 (11716521_a_at) / Fold change /veh C10orf10 (11716521_a_at) / RFU C5orf56 (11738089_at) / Fold change /veh C5orf56 (11738089_at) / RFU CYB561 (11721691_x_at) / Fold change /veh CYB561 (11721691_x_at) / RFU ANKRD19P (11752326_a_at) / Fold change /veh ANKRD19P (11752326_a_at) / RFU OR2T12 /// OR2T33 /// OR2T8 (11738714_s_at) / Fold change /veh OR2T12 /// OR2T33 /// OR2T8 (11738714_s_at) / RFU VCAN (11748164_a_at) / Fold change /veh VCAN (11748164_a_at) / RFU JSRP1 (11732532_at) / Fold change /veh JSRP1 (11732532_at) / RFU KRTAP10-11 (11738290_x_at) / Fold change /veh KRTAP10-11 (11738290_x_at) / RFU MYO3A (11730013_a_at) / Fold change /veh MYO3A (11730013_a_at) / RFU EBF3 (11725865_a_at) / Fold change /veh EBF3 (11725865_a_at) / RFU CAMK2N1 (11719241_x_at) / Fold change /veh CAMK2N1 (11719241_x_at) / RFU C5orf56 (11738088_a_at) / Fold change /veh C5orf56 (11738088_a_at) / RFU OLFML3 (11715873_a_at) / Fold change /veh OLFML3 (11715873_a_at) / RFU LOC100653217 /// NTM (11731650_a_at) / Fold change /veh LOC100653217 /// NTM (11731650_a_at) / RFU MAPK11 (11762145_a_at) / Fold change /veh MAPK11 (11762145_a_at) / RFU FIZ1 (11724087_x_at) / Fold change /veh FIZ1 (11724087_x_at) / RFU OASL (11726364_x_at) / Fold change /veh OASL (11726364_x_at) / RFU SOX15 (11748057_x_at) / Fold change /veh SOX15 (11748057_x_at) / RFU CD79A (11719716_a_at) / Fold change /veh CD79A (11719716_a_at) / RFU HIST1H1D (11736915_at) / Fold change /veh HIST1H1D (11736915_at) / RFU CASKIN2 (11723855_a_at) / Fold change /veh CASKIN2 (11723855_a_at) / RFU LOC730098 (11760151_x_at) / Fold change /veh LOC730098 (11760151_x_at) / RFU OR4N2 (11742367_at) / Fold change /veh OR4N2 (11742367_at) / RFU PRRT2 (11749266_a_at) / Fold change /veh PRRT2 (11749266_a_at) / RFU SNX32 (11753110_a_at) / Fold change /veh SNX32 (11753110_a_at) / RFU CDHR5 (11726645_a_at) / Fold change /veh CDHR5 (11726645_a_at) / RFU RCAN1 (11760418_a_at) / Fold change /veh RCAN1 (11760418_a_at) / RFU FAM167A (11723789_a_at) / Fold change /veh FAM167A (11723789_a_at) / RFU FAM26E (11764081_at) / Fold change /veh FAM26E (11764081_at) / RFU ISYNA1 (11749810_s_at) / Fold change /veh ISYNA1 (11749810_s_at) / RFU ACY1 (11761880_at) / Fold change /veh ACY1 (11761880_at) / RFU 11764098_at / Fold change /veh 11764098_at / RFU SAMD14 (11745864_x_at) / Fold change /veh SAMD14 (11745864_x_at) / RFU NPB (11741838_a_at) / Fold change /veh NPB (11741838_a_at) / RFU TMPRSS6 (11731388_a_at) / Fold change /veh TMPRSS6 (11731388_a_at) / RFU KRTAP10-2 (11738614_at) / Fold change /veh KRTAP10-2 (11738614_at) / RFU ARHGAP8 /// PRR5-ARHGAP8 (11727945_x_at) / Fold change /veh ARHGAP8 /// PRR5-ARHGAP8 (11727945_x_at) / RFU KRTAP5-7 /// NADSYN1 (11734609_at) / Fold change /veh KRTAP5-7 /// NADSYN1 (11734609_at) / RFU RASL12 (11751679_a_at) / Fold change /veh RASL12 (11751679_a_at) / RFU CDKN2B (11736163_a_at) / Fold change /veh CDKN2B (11736163_a_at) / RFU PRF1 (11729649_at) / Fold change /veh PRF1 (11729649_at) / RFU, ZNF638 /// ZNF638-IT1 / Fold change vs veh, ZNF638 /// ZNF638-IT1 / RFU, PANK3 / Fold change vs veh, PANK3 / RFU, SH3YL1 / Fold change vs veh, SH3YL1 / RFU, ZEB2 / Fold change vs veh, ZEB2 / RFU, NRIP1 / Fold change vs veh, NRIP1 / RFU, PTTG1IP / Fold change vs veh, PTTG1IP / RFU, CAPN2 / Fold change vs veh, CAPN2 / RFU, MED14 / Fold change vs veh, MED14 / RFU, SNORA58 / Fold change vs veh, SNORA58 / RFU, C1orf63 / Fold change vs veh, C1orf63 / RFU, LRRFIP1 / Fold change vs veh, LRRFIP1 / RFU, NDUFAF7 / Fold change vs veh, NDUFAF7 / RFU, SLC12A2 / Fold change vs veh, SLC12A2 / RFU, IBTK / Fold change vs veh, IBTK / RFU, ESF1 / Fold change vs veh, ESF1 / Fold change vs veh, TMEM50B / RFU, TAOK1 / Fold change vs veh, TAOK1 / RFU, ACBD3 / Fold change vs veh, ACBD3 / RFU, TMA16 / Fold change vs veh, TMA16 / RFU, RWDD3 / Fold change vs veh, RWDD3 / RFU, BCAT1 / Fold change vs veh, BCAT1 / RFU, EDEM3 / Fold change vs veh, EDEM3 / RFU, TMEM33 / Fold change vs veh, TMEM33 / RFU, WDR75 / Fold change vs veh, WDR75 / RFU, AHCTF1 / Fold change vs veh, AHCTF1 / RFU, TFRC / Fold change vs veh, TFRC / RFU, ZDHHC17 / Fold change vs veh, ZDHHC17 / RFU, NOM1 / Fold change vs veh, NOM1 / RFU, ARL8B / Fold change vs veh, ARL8B / RFU, ZBTB11 / Fold change vs veh, ZBTB11 / RFU, TAMM41 / Fold change vs veh, TAMM41 / RFU, KIAA1704 /// LOC100996395 / Fold change vs veh, KIAA1704 /// LOC100996395 / RFU, ING1 / Fold change vs veh, ING1 / RFU, TRMT61B / Fold change vs veh, TRMT61B / RFU, FUBP3 / Fold change vs veh, FUBP3 / RFU, TP53 / Fold change vs veh, TP53 / RFU, TNKS2 / Fold change vs veh, TNKS2 / RFU, ZFP14 / Fold change vs veh, ZFP14 / RFU, ACTR2 / Fold change vs veh, ACTR2 / RFU, PPP3R1 / Fold change vs veh, PPP3R1 / RFU, PIK3R1 / Fold change vs veh, PIK3R1 / RFU, HNRNPA1 / Fold change vs veh, HNRNPA1 / RFU, RNF170 / Fold change vs veh, RNF170 / RFU, ZNF28 / Fold change vs veh, ZNF28 / RFU, RNGTT / Fold change vs veh, RNGTT / RFU, OGT / Fold change vs veh, OGT / RFU, BRD1 / Fold change vs veh, BRD1 / RFU, MARS / Fold change vs veh, MARS / RFU, ZNF655 / Fold change vs veh, ZNF655 / RFU, FAHD1 / Fold change vs veh, FAHD1 / RFU, BDP1 / Fold change vs veh, BDP1 / RFU, LRRCC1 / Fold change vs veh, LRRCC1 / RFU, ARID1A / Fold change vs veh, ARID1A / RFU, ZNF146 / Fold change vs veh, ZNF146 / RFU, ZNF330 / Fold change vs veh, ZNF330 / RFU, GPN3 / Fold change vs veh, GPN3 / RFU, C9orf123 / Fold change vs veh, C9orf123 / RFU, N4BP2L2 / Fold change vs veh, N4BP2L2 / RFU, ARFIP1 / Fold change vs veh, ARFIP1 / RFU, FAM179B / Fold change vs veh, FAM179B / RFU, BCL10 / Fold change vs veh, BCL10 / RFU, UHRF1BP1L / Fold change vs veh, UHRF1BP1L / RFU, BET1 / Fold change vs veh, BET1 / RFU, CNOT2 / Fold change vs veh, CNOT2 / RFU, ZNF268 / Fold change vs veh, ZNF268 / Fold change vs veh, ZNF507 / RFU, DGCR2 / Fold change vs veh, DGCR2 / RFU, WDSUB1 / Fold change vs veh, WDSUB1 / Fold change vs veh, HSP90B1 /// MIR3652 / RFU, ADSS / Fold change vs veh, ADSS / RFU, GK / Fold change vs veh, GK / RFU, ZNF148 / Fold change vs veh, ZNF148 / RFU, TAF9 / Fold change vs veh, TAF9 / RFU, SLC1A5 / Fold change vs veh, SLC1A5 / RFU, SLMO2 / Fold change vs veh, SLMO2 / RFU, ABCC4 / Fold change vs veh, ABCC4 / RFU, LOC101060439 /// RAP1B / Fold change vs veh, LOC101060439 /// RAP1B / RFU, RFX7 / Fold change vs veh, RFX7 / RFU, GTPBP10 / Fold change vs veh, GTPBP10 / RFU, CNEP1R1 / Fold change vs veh, CNEP1R1 / RFU, BIVM-ERCC5 /// ERCC5 / Fold change vs veh, BIVM-ERCC5 /// ERCC5 / RFU, ILF3 / Fold change vs veh, ILF3 / RFU 11762660_at / Fold change /veh 11762660_at / RFU VCAN (11757783_s_at) / Fold change /veh VCAN (11757783_s_at) / RFU DDX43 (11728927_at) / Fold change /veh DDX43 (11728927_at) / RFU KRT8 (11758188_x_at) / Fold change /veh KRT8 (11758188_x_at) / RFU NKD1 (11759106_at) / Fold change /veh NKD1 (11759106_at) / RFU SRD5A1 (11742802_a_at) / Fold change /veh SRD5A1 (11742802_a_at) / RFU TPSAB1 /// TPSB2 (11721975_s_at) / Fold change /veh TPSAB1 /// TPSB2 (11721975_s_at) / RFU GSTM3 (11746129_a_at) / Fold change /veh GSTM3 (11746129_a_at) / RFU IL23R (11737362_x_at) / Fold change /veh IL23R (11737362_x_at) / RFU TMEM51 (11727254_a_at) / Fold change /veh TMEM51 (11727254_a_at) / RFU PIWIL2 (11732686_x_at) / Fold change /veh PIWIL2 (11732686_x_at) / RFU ORM1 (11744905_x_at) / Fold change /veh ORM1 (11744905_x_at) / RFU CCDC152 (11743942_at) / Fold change /veh CCDC152 (11743942_at) / RFU ECM1 (11717891_a_at) / Fold change /veh ECM1 (11717891_a_at) / RFU IL23R (11748794_a_at) / Fold change /veh IL23R (11748794_a_at) / RFU TNFAIP8L3 (11732012_x_at) / Fold change /veh TNFAIP8L3 (11732012_x_at) / RFU MBOAT4 (11741988_at) / Fold change /veh MBOAT4 (11741988_at) / RFU 11764193_at / Fold change /veh 11764193_at / RFU TMEM53 (11763286_at) / Fold change /veh TMEM53 (11763286_at) / RFU MAGEB2 (11727129_at) / Fold change /veh MAGEB2 (11727129_at) / RFU TMEM200A (11744735_a_at) / Fold change /veh TMEM200A (11744735_a_at) / RFU CCDC152 (11751479_a_at) / Fold change /veh CCDC152 (11751479_a_at) / RFU FAM211A (11726209_a_at) / Fold change /veh FAM211A (11726209_a_at) / RFU RGS16 (11746705_a_at) / Fold change /veh RGS16 (11746705_a_at) / RFU VCAN (11755009_s_at) / Fold change /veh VCAN (11755009_s_at) / RFU RHOB (11743442_s_at) / Fold change /veh RHOB (11743442_s_at) / RFU RGS16 (11720943_a_at) / Fold change /veh RGS16 (11720943_a_at) / RFU RGS16 (11720944_at) / Fold change /veh RGS16 (11720944_at) / RFU, VPS4B / Fold change vs veh, VPS4B / RFU, CREB1 / Fold change vs veh, CREB1 / RFU, DNAJC13 / Fold change vs veh, DNAJC13 / RFU, GNAQ / Fold change vs veh, GNAQ / RFU, CDK5R1 / Fold change vs veh, CDK5R1 / RFU, ZRANB3 / Fold change vs veh, ZRANB3 / RFU, CUL4A / Fold change vs veh, CUL4A / RFU, CCNY / Fold change vs veh, CCNY / RFU, UFL1 / Fold change vs veh, UFL1 / RFU, COG3 / Fold change vs veh, COG3 / RFU, DIAPH2 / Fold change vs veh, DIAPH2 / RFU, SKA2 / Fold change vs veh, SKA2 / RFU, AFF3 / Fold change vs veh, AFF3 / RFU, LMF1 / Fold change vs veh, LMF1 / RFU, IPO11 / Fold change vs veh, IPO11 / RFU, DFFB / Fold change vs veh, DFFB / RFU, FOXP1 / Fold change vs veh, FOXP1 / RFU, CARD8 / Fold change vs veh, CARD8 / RFU, STRN3 / Fold change vs veh, STRN3 / RFU, ADK / Fold change vs veh, ADK / RFU, RASSF2 / Fold change vs veh, RASSF2 / RFU, WIPF1 / Fold change vs veh, WIPF1 / RFU, LARP1B / Fold change vs veh, LARP1B / RFU, RASA1 / Fold change vs veh, RASA1 / RFU, RB1 / Fold change vs veh, RB1 / RFU, PPFIA1 / Fold change vs veh, PPFIA1 / RFU, MAT2A / Fold change vs veh, MAT2A / RFU, CCT5 / Fold change vs veh, CCT5 / RFU, WDR92 / Fold change vs veh, WDR92 / RFU, CUX1 / Fold change vs veh, CUX1 / RFU, TTC7A / Fold change vs veh, TTC7A / RFU, TMEM135 / Fold change vs veh, TMEM135 / RFU, DEPTOR / Fold change vs veh, DEPTOR / RFU, CPM / Fold change vs veh, CPM / RFU, DNAJB6 / Fold change vs veh, DNAJB6 / RFU, CACNA2D3 / Fold change vs veh, CACNA2D3 / RFU, DTX4 / Fold change vs veh, DTX4 / RFU, TFCP2 / Fold change vs veh, TFCP2 / RFU, GMCL1 /// GMCL1P1 / Fold change vs veh, GMCL1 /// GMCL1P1 / RFU, AEBP2 / Fold change vs veh, AEBP2 / RFU, SNHG1 /// SNORD22 /// SNORD25 /// SNORD26 /// SNORD27 /// SNORD28 /// SNORD29 /// SNORD31 / Fold change vs veh, SNHG1 /// SNORD22 /// SNORD25 /// SNORD26 /// SNORD27 /// SNORD28 /// SNORD29 /// SNORD31 / Fold change (Aza/veh), C12orf56 (ProbeSet 11735607_a_at) / Fold change (ACY-1035/veh), C12orf56 (ProbeSet 11735607_a_at) / Fold change (Aza/veh), FGFR1OP (ProbeSet 11751329_s_at) / Fold change (ACY-1035/veh), FGFR1OP (ProbeSet 11751329_s_at) / Fold change (Aza/veh), VPS36 (ProbeSet 11739960_a_at) / Fold change (ACY-1035/veh), VPS36 (ProbeSet 11739960_a_at) / RFU SYPL1 (11715823_x_at) / Fold change /veh SYPL1 (11715823_x_at) / RFU IGFBP7 (11715501_s_at) / Fold change /veh IGFBP7 (11715501_s_at) / RFU REEP3 (11722064_at) / Fold change /veh REEP3 (11722064_at) / RFU IGLL1 (11728026_x_at) / Fold change /veh IGLL1 (11728026_x_at): dose or concentration left out as unconfirmed
Conditions: ProbeSet 11723475_a_at; LIST B

Compound: Nc1ncn([C@@H]2O[C@H](CO)[C@@H](O)[C@H]2O)c(=O)n1 [azacitidine]
- RFU, TRMT61B: 139.59 RFU
